Article PMC9101764, “Synthesis and In Vitro Characterization of Selective Cannabinoid CB2 Receptor Agonists: Biological Evaluation against Neuroblastoma Cancer Cells” (Molecules, 2022)

Key:
hCB2R = molecular target: T1, hCB2R (Homo sapiens, UniProt P34972); test: PathHunter β-arrestin2 recruitment assay in CHO cells; assay type: cell-based
T1 construct: host or cells: HitHunter CHO-K1 cells
Method: Compounds FG158a, FG160a, FG161a, and LV62 were also evaluated for their ability to recruit β-arrestin2, since G protein-coupled receptors also interact with β-arrestin, which facilitates receptor internalization, recycling, degradation, and signaling.
CHO cells stably expressing hCB1R or hCB2R were maintained at 37 °C and 5% CO2 in Gibco Ham’s F-12 nutrient mix (Fisher Scientific, Loughborough, UK ) supplemented with 2 mM L-glutamine, 10% fetal bovine serum (FBS), 0.6% penicillin−streptomycin (Fisher Scientific, Loughborough UK), and the disulfate salt of geneticin (G418) as previously described (Sigma-Aldrich, Poole, UK). For subsequent radioligand displacement assays, membranes were prepared by scraping cells from flasks, centrifuging the cells, and storing the cell pellet at −20 °C. When required for us, cell pellets were defrosted and diluted in tris buffer (50 mM Tris-HCl and 50 mM Tris-base). As we have described in previous studies, HitHunter (cAMP) and PathHunter (βarrestin2) CHO-K1 cells stably expressing hCB1R or hCB2R from DiscoveRx® (Eurofins, Fremont, CA, USA) were maintained at 37 °C, 5% CO2 in F-12 DMEM containing 10% FBS and 1% Pen/Strep with 800 µg/mL geneticin (HitHunter) or 800 µg/mL G418 and 300 µg/mL hygromycin B (PathHunter).
The quantification of β-arrestin2 recruitment using the DiscoveRx PathHunter assay has been described by our group previously and is summarized here.. Twenty thousand cells/well were grown overnight in Opti-MEM containing 1% FBS at 37 °C and 5% CO2 in low-volume 96 well plates. The next day, cells were treated with compounds for 90 min at 37 °C. Detection solution was added to cells according to the manufacturer’s directions (DiscoveRx) and cells were stored for 60 min at room temperature. After this incubation, chemiluminescence was quantified on a Cytation5 plate reader (top read, gain 200, integration time 10,000 ms).
Estimates of Ki, EC50, and Emax were determined using non-linear regression three-parameters (GraphPad, Prism, v. 9.0).
Data are fitted to a non−linear regression (three parameter model, GraphPad v. 9.0). Data are mean ± S.E.M. of 6 independent experiments performed in triplicate.

SH-SY5Y cells = test: Sulforhodamine B (SRB) cell viability assay; assay type: cell-based, human
Method: We tested the anti-proliferative activity of the novel CB2R agonists FG158a, FG160a, FG161a, and LV62 in neuroblastoma cell lines (Figure 4). The compounds were assayed as a mixture of cis and trans isomers. […] After 72 h of treatment, the effect was higher and could also be observed at lower concentrations. The inhibitory effect was confirmed in another neuroblastoma cell line, SK-N-BE cells.
Human neuroblastoma SHSY5Y and SK-N-BE cell lines were grown in DMEM (GIBCO, Paisley, UK) and MEM (Sigma-Aldrich, St.Louis, MO, USA), respectively, supplemented with 2 mM l-glutamine, […], 50 units/mL penicillin and 10% heat-inactivated fetal bovine serum (FBS) in a humidified atmosphere (5% CO2 at 37 °C). Cells were detached as previously described with 0.25% trypsin (Sigma-Aldrich) at 70–80% confluence.
Cells seeded for 24 h in triplicate in 96-well plates at a density of 8000 cells/well were left to adhere overnight. CB2R agonists were added to the culture in triplicate at concentrations ranging from 2.5–40 µM. After 24 h, 48 h, and 72 h, cells were fixed, shaking for 2 h at 4 °C with 50% v/v trichloroacetic acid and washed with distilled water. Cells left overnight to dry were stained with 0.4% w/v SRB in 1% v/v acetic acid (at room temperature for 30 min on a shaker) and then washed with 1% acetic acid to allow for the removal of the unbound dye. TRIS-HCl 10 mM, pH 7.4 was added to the cells and absorbance was measured at 495 nm as previously shown using a Glomax® Discover Microplate Reader (Promega, Madison, WI, USA). In combinatory assays, similar procedures were adopted and the CB2R antagonist SR144528 (1 µM) was added 1 h before the CB2 agonists (10, 20 and 40 µM) to SHSY5Y cells that were harvested as described above after 72 h of incubation.
Figure 4 Inhibition of cell viability. The effect on cell viability by CB2R agonists was determined by sulforhodamine B (SRB) assays in SH-SY5Y and SK-N-BE cell lines. SH-SY5Y cells were treated with the compounds indicated in the figure for 24 h (A), 48 h (B), and 72 h (C) at the concentrations reported in the histograms. SK-N-BE cells were treated with the same compounds for 72 h (D). Figures report cell viability (mean of at least 3 independent experiments ± SEM) as percent of cell survival vs. untreated cells (considered as 100% of survival). […] The statistical significance was calculated with two-way ANOVA using Dunnett’s multiple comparisons test.

T1 sequence (P34972 whole entry): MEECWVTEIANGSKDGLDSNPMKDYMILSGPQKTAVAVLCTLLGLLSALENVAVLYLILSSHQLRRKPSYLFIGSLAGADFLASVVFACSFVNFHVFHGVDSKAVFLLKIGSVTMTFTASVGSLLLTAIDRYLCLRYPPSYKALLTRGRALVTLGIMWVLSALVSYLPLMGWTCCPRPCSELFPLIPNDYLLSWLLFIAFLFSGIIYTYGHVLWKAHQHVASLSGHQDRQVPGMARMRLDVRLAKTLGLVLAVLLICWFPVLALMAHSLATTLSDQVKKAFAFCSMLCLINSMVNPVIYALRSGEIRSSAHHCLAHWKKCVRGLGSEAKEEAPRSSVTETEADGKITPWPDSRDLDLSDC

For `CC1CCC(NC(=O)c2cc3cccnc3n(CCCCCBr)c2=O)CC1` (stereo not shown) [FG158a, 1-(5-bromopentyl)-N-(4-methylcyclohexyl)-2-oxo-1,2-dihydro-1,8-naphthyridine-3-carboxamide], the EC50 (hCB2R) was greater than 10 µM, the “β-Arrestin2 Recruitment Emax (% CP55,940) ± S.E.M” value (hCB2R; CHO cells expressing human CB2R, 90 min) was 46 ± 1.8 % CP55,940 and the “effect on cell viability” value (SH-SY5Y cells; 24 h, 48 h and 72 h, 2.5–40 µM) was “inhibited cell viability”. For the same compound, the IC50 (SH-SY5Y cells; Homo sapiens, 72 h of treatment, SRB, cis/trans mixture) was 11.8 µM.
